Patent US6942963B1, “Methods for identifying treatments for neurotoxicity in Alzheimer's disease caused by β-amyloid peptides” (Massachusetts Institute of Technology, priority 1997, dated 2005)
Several values for one entry are separate records, joined by “and”; a condition that tells them apart may be missing. Equal entries are not always repeated. Entries after “also recorded” stand apart in the source; their conditions may differ. Where two headings read alike, the source gives them in different places. Non-standard residues stand in square brackets, D forms with d. No end group written: not given here.

Columns and labels:
Assay type in all cases: cell-based, human
[1] = system: βAP25-35-induced calcium influx, hNT cells; test: βAP25-35-induced calcium influx in hNT cells: effect of channel antagonists and decoy peptides; settings: for effect on βAP25-35-induced calcium influx: βAP25-35 21 μM; for effect on increase in internal calcium concentration due to βAP25-35: decoy peptide mixed with βAP25-35 at ratio 1:1 (20 μM+20 μM), hNT cells
hNT cells [2] = test: Internal calcium concentration [Ca2+]int in hNT cells (fura-2) on exposure to β-amyloid peptide or test agent alone; settings: for [Ca^2+]int after exposure to unfiltered peptide: hNT cells in Tyr2Ca, peptide at 20 μM (βAP1-42 aggregated 37C, 24 hr), controls 80 nM and 50 nM; for % increase in [Ca^2+]int: unfiltered suspension in Tyr2Ca; for effect of decoy peptide by itself on cytosolic calcium concentrations: decoy peptide alone at 20 μM, filtered stocks, Tyrode's/2 mM Ca
hNT cells [3] = test: Membrane depolarization of hNT cells by aggregated Aβ1-42 (DiBAC4(3) fluorescence); settings: for % ΔF / Δ EM: aggregated Aβ1-42 20 μM
Experimental: Changes in membrane potential were measured using the fluorescent potentiometric probe DiBAC4(3), (Molecular Probes, Inc., Eugene, Oreg.). This dye, bis-(1,3-dibutylbarbituric acid)trimethine oxonol, detects membrane depolarization, because it enters depolarized cells and binds to intracellular proteins or membranes. […] Hyperpolarization results in extrusion of the anionic dye and thus a decrease in fluorescence. Our measurements use two dyes, fura-2 and DiBAC4(3), since these dyes have excitation wavelengths that are far apart, but have similar emission wavelengths. DiBAC4(3) was added to fura-2AM loaded hNT cells at a concentration of 100 nM in Tyr2Ca. Rapidly alternating measurements of fura-2 (excited at 340 & 380 nm) and DiBAC4(3) (excited at 490 nm) were performed using emission at 516 nm. Both dyes were measured using the special “Fura2-Fluo3” filter set 7400 from Chroma Technology (Brattleboro, Vt.), a Zeiss Axiovert 100 inverted microscope and a photometry system (model “Delta Ram” from Photon Technology International, Inc., Monmouth Junction, N.J.).
The bis-oxonol dye DiBAC4(3) was used as an indicator of transmembrane electrical potential changes (Langheinrich and Daut, J. Physiol. 502:397-408, 1997) when our hNT cells were treated with, for example, the β-amyloid peptide Aβ1-42. The use of this dye enabled us to monitor groups of 5-15 neurons, rather than single cells as would be the case with patch clamping methods. We expected great variability from cell to cell, as was found in our earlier patch clamp work (Sanderson et al., Brain Res. 744:7-14, 1997). The method has been used by many laboratories for the determination of membrane potentials in different cell types. Fluorescence is increased upon membrane depolarization as more dye enters the cytosol, resulting in increased binding to proteins (Braiuner et al., Biochim. Biophys. Acta 771:[…], 1984). Partitioning of bis-oxonol dye between the plasma membrane and the cytosol follows the Nernst equation (Langheinrich and Daut, 1997). Unless otherwise indicated, all measurements were carried out in Tyrode's solution containing 2 mM Ca.
We calibrated the gross fluorescence as a function of membrane potential by treating a culture of hNT neurons, bathed in Tyrode's 2Ca buffer with the usual 3 mM K^+, containing 97 nM DiBAC4(3), with Tyrode's 2Ca buffer containing 40 mM KCl. We measured the gross fluorescence at excitation=490 nm and emission=510 nm for the depolarization by KCl and for depolarization by the Aβ1-42 peptide. We used the formula proposed by Langheinrich and Daut, 1997: % ΔF=(1−Fmin/Fmax)*100=ΔEMmV
where Fmin=fluorescence before treatment, Fmax=fluorescence during treatment, ΔEM mV is the change in membrane potential brought about by the treatment. The calculation based on the expected depolarization by changing from 3 mM KCl to 40 MM KCl gave a value of ΔEM=3.8 mV/1% ΔF.
Groups of hNT neuronal cells (5-17) were exposed to Aβ1-42 (20 μM) that had been incubated at 37° C. for 48 hours; 97 nM DiBAC4(3) was present. Fluorescence was measured as described above; Ex=490 nm, Em=510 nm.

[4] = system: βAP1-42-induced calcium influx, hNT cells; test: βAP1-42 (Aβ1-42) aggregate-induced calcium influx in hNT cells: effect of decoy peptides and channel blockers
[5] = hNT cells, aggregated Aβ1-42 in Tyrode's medium without calcium

NC(CCCP(=O)(O)O)C(=O)O (racemic) [DL-AP5, DL-2-amino-5-phosphonovaleric acid]
block of calcium influx into hNT neuronal cells caused by βAP25-35 ([1]; concentration not stated): lack of blocking effect
effect on βAP25-35-induced calcium influx ([1]; DL-AP5 at 50 μM): failed to prevent
effect on βAP25-35-induced calcium influx ([1]; DL-AP5 at 200 μM): failed to prevent

[Cl][Al]([Cl])[Cl] [AlCl3]
calcium influx induced by agent by itself (hNT cells [2]; hNT neuronal cells, from external calcium sources): powerfully induces calcium influx

O=c1[nH]c2cc([N+](=O)[O-])c([N+](=O)[O-])cc2[nH]c1=O [DNQX, 6,7-dinitroquinoxaline-2,3(1H, 4H)-dione]
effect on βAP25-35-induced calcium influx ([1]; DNQX at 8 μM, applied together): completely prevented

O=C(O)CN(CCOCCOCCN(CC(=O)O)CC(=O)O)CC(=O)O [EGTA]
internal calcium with chelator in external solution in addition to βAP25-35 ([1]; 20 mM EGTA in addition to βAP25-35 peptide): decreased internal calcium to control levels

NC(CO)(CO)CO [TRIS^+, Tromethamine]
effect on membrane depolarization by aggregated Aβ1-42 (hNT cells [3]; hNT cells, 10 mM TRIS^+): moderate decrease in membrane depolarization; also recorded: partially blocks membrane depolarization

NC1=N[C@H](O)[C@H]2[C@H]3O[C@]4(O)O[C@@H]([C@@H](O)[C@@]2(N1)[C@@H]4O)[C@]3(O)CO [TTX, tetrodotoxin]
% ΔF in presence of addition (hNT cells [3]): 17.3%
effect on membrane depolarization by aggregated Aβ1-42 (hNT cells [3]): allowed both membrane depolarization and a rise in cytosolic calcium levels; also recorded: allows both membrane depolarization
Δ EM in presence of addition (hNT cells [3]): +65.7 mV
effect on rise in cytosolic calcium caused by aggregated Aβ1-42 [4]: allowed both membrane depolarization and a rise in cytosolic calcium levels; also recorded: the rise in cytosolic calcium

[Cl-].[Cl-].[Mg+2] [magnesium chloride]
block of calcium influx into hNT neuronal cells caused by βAP25-35 [1]: blocks the influx of Ca^2+; also recorded: can be blocked
effect on βAP25-35-induced influx of calcium [1]: totally blocked

GSNKGAIIGLM [βAP25-35]
[Ca^2+]int after exposure to unfiltered peptide (hNT cells [2]): approximately 200 nM
internal calcium concentration after restoring external calcium to 2 mM without extra peptide (hNT cells [2]; hNT cells previously exposed to 50 μM βAP25-35 in Tyrode's/0 mM Ca): ~200 % of control levels
[Ca^2+]int relative to control (hNT cells [2]; hNT cells, 21 μM βAP25-35, single experiment, 4 cells): 270 % of control
internal calcium in external Tyrode's solution without calcium (hNT cells [2]; hNT cells, Tyrode's/0 mM Ca plus 50 μM βAP25-35, even after 15 minutes): no increase in internal calcium
% increase in [Ca^2+]int (hNT cells [2]; hNT cells, [βAP25-35] 10 μM): 170 ± 85%
% increase in [Ca^2+]int (hNT cells [2]; hNT cells, [βAP25-35] 20 μM): 286 ± 179%
% increase in [Ca^2+]int (hNT cells [2]; hNT cells, [βAP25-35] 50 μM): 343 ± 245%
% increase in [Ca^2+]int (hNT cells [2]; hNT cells, [βAP25-35] 130 μM): 623 ± 555%
% increase in [Ca^2+]int (hNT cells [2]; hNT cells, [βAP25-35] 172 μM): 367 ± 108%
% increase in [Ca^2+]int (hNT cells [2]; hNT cells, [βAP25-35] 334 μM): 508 ± 561%
% increase in [Ca^2+]int (hNT cells [2]; hNT cells, [βAP25-35] 112-114 μM): 366 ± 260%

^+NH3-TVIGTIGGG-CONH2 (H-[dT][dV][dI]G[dT][dI]GGG-NH2; SMILES CC[C@@H](C)[C@@H](NC(=O)[C@H](NC(=O)[C@H](N)[C@H](C)O)C(C)C)C(=O)NCC(=O)N[C@@H](C(=O)N[C@@H](C(=O)NCC(=O)NCC(=O)NCC(N)=O)[C@H](C)CC)[C@H](C)O) [DP3]
effect on calcium influx when decoy peptide added prior to βAP25-35 aggregation ([1]; DP3 in Tyrode's/2 mM Ca for 1 hour, then βAP25-35 added, both 20 mM [sic]): reduced the calcium influx induced by βAP25-35; also recorded: can reduce the βAP25-35-induced Ca^2+ influx
effect on increase in internal calcium concentration due to βAP25-35 [1]: reduced or abolished the increase in the internal calcium concentration
effect on ability of βAP25-35 to induce influx of calcium ([1]; unfiltered DP3 mixed with βAP25-35 at molar ratios of 1:2 or greater): marked decrease in the ability of βAP25-35 to induce influx of calcium
effect on calcium influx when decoy peptide added after βAP25-35 aggregation ([1]; βAP25-35 aggregated 2 hours before DP3 addition, both 20 mM [sic]): did not reduce the induction of calcium influx
effect of decoy peptide by itself on cytosolic calcium concentrations (hNT cells [2]; hNT cells): raise cytosolic calcium concentrations somewhat
effect of unfiltered decoy peptide alone on [Ca^2+]int (hNT cells [2]; hNT cells, unfiltered DP3 at 20 μM): an increase in [Ca^2+]int

^+NH3.A.G.V.I.S.I.G.G.G (AGVISIGGG; not fully specified; printed as ^+NH3.A.G.V.I.S.I.G.G.G) [DP7]
effect on increase in internal calcium concentration due to βAP25-35 [1]: reduced or abolished the increase in the internal calcium concentration
effect of decoy peptide by itself on cytosolic calcium concentrations (hNT cells [2]; hNT cells): raise cytosolic calcium concentrations somewhat

^+NH3.P.V.P.R^+.P.I.P.A.P.COO^− (H-[dP][dV][dP][dR][dP][dI][dP][dA][dP]-OH; also: modified) [DP17]
effect on βAP1-42 calcium influx ([4]; βAP1-42 25 μM coincubated with equimolar decoy peptide at 37° C. for 44 hours, hNT cells): did not reduce the effect of βAP1-42 on the calcium influx

^+NH3.T.G.I.I.A.S.G.G.G. (H-[dT]G[dI][dI][dA][dS]GGG) [DP4]
effect on increase in internal calcium concentration due to βAP25-35 [1]: reduced or abolished the increase in the internal calcium concentration
effect of decoy peptide by itself on cytosolic calcium concentrations (hNT cells [2]; hNT cells): no effect on cytosolic calcium concentrations

^+NH3.T.T.I.V.S.T.G.G.G (H-[dT][dT][dI][dV][dS][dT]GGG) [DP6]
effect on increase in internal calcium concentration due to βAP25-35 [1]: reduced or abolished the increase in the internal calcium concentration
effect of decoy peptide by itself on cytosolic calcium concentrations (hNT cells [2]; hNT cells): raise cytosolic calcium concentrations somewhat

βAP1-42: β-amyloid peptide, SEQ ID NO:20, purchased from Quality Controlled Biochemicals
calcium influx by Aβ1-42 not incubated at 37° C. (hNT cells [2]; Aβ1-42 sample not incubated (protofibrils)): did not produce the characteristic calcium influx
[Ca^2+]int after exposure to unfiltered peptide (hNT cells [2]): approximately 94 nM
cytosolic calcium level after spontaneous desensitization (hNT cells [2]; hNT cells, aggregated Aβ1-42): ~200 % of control
new plateau calcium level relative to control values (hNT cells [2]; hNT cells, aggregated Aβ1-42, other experiments with longer time): about twofold
rise in cytosolic calcium without external calcium (hNT cells [2]; [5]): almost no rise in cytosolic calcium
cytosolic calcium upon addition of aggregated Aβ1-42 (hNT cells [2]; hNT cells, fura-2, Tyrode's/2Ca): large increase in cytosolic calcium
concentration dependence of calcium influx (hNT cells [2]; hNT cells, increasing βAP1-42 concentration): strong concentration dependence
% ΔF (hNT cells [3]; [Ca^2+] 0 mM, Na^+): 51.1%
% ΔF (hNT cells [3]; [Ca^2+] 0.4 mM, Na^+): 8.3%
Δ EM (hNT cells [3]; [Ca^2+] 0.4 mM, Na^+): +31.6 mV
% ΔF (hNT cells [3]; [Ca^2+] 2 mM, ext. cation NMDG^+): 44.1%
% ΔF (hNT cells [3]; [Ca^2+] 2 mM, ext. cation Na^+, no addition): 15.7% and 14.8%
% ΔF (hNT cells [3]; [Ca^2+] 2 mM, ext. cation TEA^+): 44.8%
% ΔF (hNT cells [3]; [Ca^2+] 10 mM, Na^+): 15.3%
Δ EM (hNT cells [3]; [Ca^2+] 10 mM, Na^+): +58.3 mV
membrane depolarization caused by pre-aggregated Aβ1-42 (hNT cells [3]; cultured hNT neuronal cells, Tyrode's/2Ca): large membrane depolarization
membrane depolarization with external Na^+ replaced (hNT cells [3]; external Na^+ replaced with equal concentration of TEA^+ or NMDG^+): large membrane depolarization
membrane depolarization without external calcium (hNT cells [3]; [5]): greatly increased membrane depolarization
